Laboratory results from US20170122958A1, “Enzymes Functional Probes” (University of Dundee, priority 2013, published 2017).

How the values were obtained:
Format in all cases: binding
Brd2(1) Leu110-Ile = Brd2(1) Leu110-Ile (Homo sapiens, UniProt P25440, L110I); assay: ITC reverse titration of protein into compound; set-up: Plasmids of the eight single BET bromodomain constructs Brd2(1), Brd2(2), Brd3(1), Brd3(2), Brd4(1), Brd4(2), Brdt(1) and Brdt(2); His6 (N); made in house; host or cells: E. coli BL21(DE3)
Experimental: (§1) ITC experiments were carried out on a ITC200 instrument from MicroCal™ Experiments were conducted at 3 different temperatures 15° C., 25° C. and 30° C., while stirring at 1000 rpm. Buffers of proteins, peptide and compounds were matched to 20 mM HEPES pH 7.5 at 25° C. and 100 mM NaCl. Frozen protein was buffer exchanged as described for the DSF experiments. Each titration comprised 1 initial injection of 0.4 μl lasting 0.8 s, followed by 19 injections of 2 μl lasting 4 s each at 2 min intervals. The initial injection was discarded during data analysis. Standard and reverse titrations were conducted depending on the binding partners.
(§2) Reverse titrations were conducted to test the binding of the known ligands and the novel chemical probes to the wild types and the mutants. Experiments were carried out either at 25° C. or 30° C. For strong binders, a concentration of 150-200 μM of the protein was injected into a solution of 15-20 μM compound. […] In cases where the compound was solubilized in dimethyl sulfoxide, DMSO concentration was adjusted to 1% both in the syringe and in the cell.
(§3) All the data was fitted to a single binding site model using the Microcal LLC ITC200 Origin software provided by the manufacturer to yield enthalpies of binding (ΔH) and binding constants (Kas). Further thermodynamic parameters were calculated from these values (changes in entropy ΔS, changes in free energy AG and dissociation constants (Kds)).

Brd2(2) Leu383-Ile = Brd2(2) Leu383-Ile (Homo sapiens, UniProt P25440, L383I); assay: ITC reverse titration of protein into compound; set-up: Plasmids of the eight single BET bromodomain constructs Brd2(1), Brd2(2), Brd3(1), Brd3(2), Brd4(1), Brd4(2), Brdt(1) and Brdt(2); His6 (N); made in house; host or cells: E. coli BL21(DE3)
Experimental: as §1, §2, §3

[1] = target: T1, Brd2 tandem with mutations on both bromodomains (LA-LA) (Homo sapiens, UniProt P25440, L110A/L383A); assay: ITC of compound into Brd2 tandem construct
T1 construct: containing the first and the second bromodomain, as well as the natural linker between them; His6; SUMO (cleaved yes); made in house; host or cells: E. coli BL21(DE3)
Experimental: (§4) Tandem constructs of Brd2 with and without leucine to alanine mutations were expressed and purified for this last part of the project. […] Nevertheless, ITC experiments were performed with four of these constructs, a tandem with no mutation (WT-WT), a tandem with the mutation in the first bromodomain (LA-WT), a tandem with the mutation on the second bromodomain (WT-LA) and a tandem with mutations on both bromodomains (LA-LA). Normal titrations (compound into syringe, protein into sample cell) with compound 11 were performed for this assay. For the WT-WT construct, 300 μM of the compound was injected into a solution of the tandem at 10 μM. For the LA-WT and WT-LA constructs, the compound was injected at 150 μM into 15 μM of the protein and for the LA-LA construct, 150 μM compound was injected into a solution of 10 μM of this tandem construct. The ITC assays were run at 30° C. at 1% DMSO.
as §1, §3

[2] = target: T2, Brd2 tandem with the mutation in the first bromodomain (LA-WT) (Homo sapiens, UniProt P25440, L110A); assay: ITC of compound into Brd2 tandem construct
T2 construct: containing the first and the second bromodomain, as well as the natural linker between them; His6; SUMO (cleaved yes); made in house; host or cells: E. coli BL21(DE3)
Experimental: as §4, §1, §3

[3] = target: T3, Brd2 tandem with no mutation (WT-WT) (Homo sapiens, UniProt P25440); assay: ITC of compound into Brd2 tandem construct
T3 construct: containing the first and the second bromodomain, as well as the natural linker between them; His6; SUMO (cleaved yes); made in house; host or cells: E. coli BL21(DE3)
Experimental: as §4, §1, §3

brdt(1)L063A = target: T4, brdt(1)L063A (Homo sapiens, UniProt Q58F21, L63A); assay: ITC reverse titration of protein into compound; conditions: 30° C.
T4 construct: Plasmids of the eight single BET bromodomain constructs Brd2(1), Brd2(2), Brd3(1), Brd3(2), Brd4(1), Brd4(2), Brdt(1) and Brdt(2); His6 (N); made in house; host or cells: E. coli BL21(DE3)
Experimental: (§5) Results obtained were very promising, showing small shifts from 1.2° C. to a maximum of 2.6° C. for all the eight BET wild types and shifts from 5.4° C. to 13.4° C. for all the leucine to alanine mutants.
(§6) For all mutants, protein was titrated at a concentration between 150-200 μM into a solution of the compound at a concentration of 15-20 μM. In the case of the wild types, protein was titrated at a concentration of 350-400 μM into a solution of the compound between 15-20 μM. FIG. 11 is an illustrative example of the curves obtained for the Brd3(1) bromodomain construct and its respective leucine to alanine mutant titrated into compound 11. We can easily observe a hyperbolic shape for the titration of wild type Brd3(1) into compound 11, corresponding to a low affinity interaction, while for Brd3(1)*(Leu070-Ala) we can easily observe a sharp sigmoidal behaviour corresponding to a high affinity interaction. Furthermore, there is a clear difference in the ΔH produced by each interaction. (ΔH=−22 kcal/mol vs. mutant compared to −7 kcal/mol vs. wild type).
as §1, §2, §3

brd4(2)L387A = target: T5, brd4(2)L387A (Homo sapiens, UniProt O60885, L387A); assay: ITC reverse titration of protein into compound; conditions: 30° C.
T5 construct: Plasmids of the eight single BET bromodomain constructs Brd2(1), Brd2(2), Brd3(1), Brd3(2), Brd4(1), Brd4(2), Brdt(1) and Brdt(2); His6 (N); made in house; host or cells: E. coli BL21(DE3)
Experimental: as §5, §6, §1, §2, §3

T1 sequence (P25440 71-455 L110A/L383A limits assumed): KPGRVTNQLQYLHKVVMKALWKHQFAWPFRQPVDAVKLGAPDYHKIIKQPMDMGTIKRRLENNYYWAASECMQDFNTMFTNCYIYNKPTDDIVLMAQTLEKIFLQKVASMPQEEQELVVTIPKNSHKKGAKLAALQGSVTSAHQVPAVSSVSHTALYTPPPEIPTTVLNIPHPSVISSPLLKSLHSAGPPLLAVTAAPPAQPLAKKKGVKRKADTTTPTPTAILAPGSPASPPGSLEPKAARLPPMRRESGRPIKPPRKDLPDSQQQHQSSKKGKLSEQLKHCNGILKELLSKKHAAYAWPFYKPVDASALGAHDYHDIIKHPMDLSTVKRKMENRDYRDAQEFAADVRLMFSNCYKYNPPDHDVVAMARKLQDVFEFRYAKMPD
T2 sequence (P25440 71-455 L110A limits assumed): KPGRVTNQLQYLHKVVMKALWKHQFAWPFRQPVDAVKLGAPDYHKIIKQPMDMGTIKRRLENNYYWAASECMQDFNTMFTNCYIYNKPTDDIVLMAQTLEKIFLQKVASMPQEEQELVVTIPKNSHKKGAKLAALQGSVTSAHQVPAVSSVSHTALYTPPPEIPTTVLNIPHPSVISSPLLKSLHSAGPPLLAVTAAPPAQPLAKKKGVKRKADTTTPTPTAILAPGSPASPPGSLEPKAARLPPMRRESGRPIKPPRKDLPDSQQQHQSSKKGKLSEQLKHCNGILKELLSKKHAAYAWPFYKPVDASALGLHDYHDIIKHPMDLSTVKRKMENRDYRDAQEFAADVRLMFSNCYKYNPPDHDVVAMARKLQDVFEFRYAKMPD
Sequence of Brd2(1) Leu110-Ile (P25440 74-180 L110I limits assumed): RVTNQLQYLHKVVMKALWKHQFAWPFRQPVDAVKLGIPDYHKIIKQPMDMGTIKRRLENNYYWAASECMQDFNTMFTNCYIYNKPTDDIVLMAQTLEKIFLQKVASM
T3 sequence (P25440 71-455 limits assumed, change not shown): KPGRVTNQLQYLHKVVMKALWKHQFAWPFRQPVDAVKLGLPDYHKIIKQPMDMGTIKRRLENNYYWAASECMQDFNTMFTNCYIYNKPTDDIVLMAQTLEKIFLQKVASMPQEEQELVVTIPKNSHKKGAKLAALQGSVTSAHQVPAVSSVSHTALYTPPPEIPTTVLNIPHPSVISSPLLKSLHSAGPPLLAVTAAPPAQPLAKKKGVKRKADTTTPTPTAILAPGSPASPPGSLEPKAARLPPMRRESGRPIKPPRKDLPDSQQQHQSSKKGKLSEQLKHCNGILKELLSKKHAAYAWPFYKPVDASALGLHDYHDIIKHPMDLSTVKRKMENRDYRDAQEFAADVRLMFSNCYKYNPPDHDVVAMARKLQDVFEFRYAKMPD
Sequence of Brd2(2) Leu383-Ile (P25440 344-453 L383I limits assumed): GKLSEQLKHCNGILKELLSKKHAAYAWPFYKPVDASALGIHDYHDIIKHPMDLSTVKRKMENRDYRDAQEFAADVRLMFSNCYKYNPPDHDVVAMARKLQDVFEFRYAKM

**Q.** COC(=O)[C@H](C)[C@@H]1N=C(c2ccc(Cl)cc2)c2cc(OC)ccc2-n2c(C)nnc21 (racemic) [Compound 7, (+−)-methyl (R)-2-((S)-6-(4-chlorophenyl)-8-methoxy-1-methyl-4H-benzo[f][1,2,4]triazolo[4,3-a][1,4]diazepin-4-yl)propanoate] was tested. Which Kd (Brd2(1) Leu110-Ile) did it give?
**A.** The Kd was 0.26 µM.

**Q.** What about the Kd (Brd2(2) Leu383-Ile) of the same compound?
**A.** The Kd was 0.027 µM.

**Q.** Which results are given for CC[C@@H](C(=O)OC)[C@@H]1N=C(c2ccc(Cl)cc2)c2cc(OC)ccc2-n2c(C)nnc21 (racemic) [Compound 11, (+−)-methyl (R)-2-((S)-6-(4-chlorophenyl)-8-methoxy-1-methyl-4H-benzo[f][1,2,4]triazolo[4,3-a][1,4]diazepin-4-yl)butanoate]?
**A.** Kd [1]: ~0.056 µM; Kd [2]: ~0.16 µM; Kd [3]: ~15.8 µM; Selectivity factor Kd WT/Kd Leu/Ala (brdt(1)L063A; brdt(1)L063A vs WT brd2(1)): 48; Selectivity factor Kd WT/Kd Leu/Ala (brdt(1)L063A; brdt(1)L063A vs WT brd2(2)): 92; Selectivity factor Kd WT/Kd Leu/Ala (brdt(1)L063A; brdt(1)L063A vs WT brd3(1)): 37; Selectivity factor Kd WT/Kd Leu/Ala (brdt(1)L063A; brdt(1)L063A vs WT brd3(2)): 40; Selectivity factor Kd WT/Kd Leu/Ala (brdt(1)L063A; brdt(1)L063A vs WT brd4(1)): 67; Selectivity factor Kd WT/Kd Leu/Ala (brdt(1)L063A; brdt(1)L063A vs WT brd4(2)): 54; Selectivity factor Kd WT/Kd Leu/Ala (brdt(1)L063A; brdt(1)L063A vs WT brdt(1)): 46; Selectivity factor Kd WT/Kd Leu/Ala (brdt(1)L063A; brdt(1)L063A vs WT brdt(2)): 65; Selectivity factor Kd WT/Kd Leu/Ala (brd4(2)L387A; brd4(2)L387A vs WT brd2(1)): 45; Selectivity factor Kd WT/Kd Leu/Ala (brd4(2)L387A; brd4(2)L387A vs WT brd2(2)): 88; Selectivity factor Kd WT/Kd Leu/Ala (brd4(2)L387A; brd4(2)L387A vs WT brd3(2)): 38; Selectivity factor Kd WT/Kd Leu/Ala (brd4(2)L387A; brd4(2)L387A vs WT brd4(1)): 65; Selectivity factor Kd WT/Kd Leu/Ala (brd4(2)L387A; brd4(2)L387A vs WT brd4(2)): 51; Selectivity factor Kd WT/Kd Leu/Ala (brd4(2)L387A; brd4(2)L387A vs WT brdt(1)): 44; Selectivity factor Kd WT/Kd Leu/Ala (brd4(2)L387A; brd4(2)L387A vs WT brdt(2)): 62
